Three compounds from paper PMC10746543, “Design principles for cyclin K molecular glue degraders” (Nature Chemical Biology, 2023) can be followed below.

Several values for one entry are separate records, joined by “and”; a condition that tells them apart may be missing. Equal entries are not always repeated. Where two headings read alike, the source gives them in different places.

One test addresses T1, CDK2–cyclin A (Homo sapiens, UniProt P24941).
T1 construct: purchased Thermo Fisher
The experiment in a line: Lanthascreen kinase binding assay, CDK2. The settings on record: for Lanthascreen signal, sheet CDK2: raw replicates, experiment r1-r11. As to the method: (§1) Lanthascreen experiments were performed using commercially available reagents (Thermo Fisher) and according to the manufacturer’s instructions.

The target in another test is T2, CDK9–cyclin T (Homo sapiens, UniProt P50750).
T2 construct: purchased Thermo Fisher
T2 sequence (P50750 whole entry): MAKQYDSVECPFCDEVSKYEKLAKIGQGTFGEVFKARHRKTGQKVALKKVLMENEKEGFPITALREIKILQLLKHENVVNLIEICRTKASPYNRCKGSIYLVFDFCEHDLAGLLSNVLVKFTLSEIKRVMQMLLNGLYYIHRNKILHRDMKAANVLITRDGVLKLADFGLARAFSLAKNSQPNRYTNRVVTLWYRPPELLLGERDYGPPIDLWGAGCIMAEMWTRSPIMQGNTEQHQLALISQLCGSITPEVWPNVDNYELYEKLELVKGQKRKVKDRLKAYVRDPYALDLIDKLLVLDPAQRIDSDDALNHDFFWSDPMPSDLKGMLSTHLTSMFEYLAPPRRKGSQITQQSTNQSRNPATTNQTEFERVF
T2 sequence (O60563 whole entry partner): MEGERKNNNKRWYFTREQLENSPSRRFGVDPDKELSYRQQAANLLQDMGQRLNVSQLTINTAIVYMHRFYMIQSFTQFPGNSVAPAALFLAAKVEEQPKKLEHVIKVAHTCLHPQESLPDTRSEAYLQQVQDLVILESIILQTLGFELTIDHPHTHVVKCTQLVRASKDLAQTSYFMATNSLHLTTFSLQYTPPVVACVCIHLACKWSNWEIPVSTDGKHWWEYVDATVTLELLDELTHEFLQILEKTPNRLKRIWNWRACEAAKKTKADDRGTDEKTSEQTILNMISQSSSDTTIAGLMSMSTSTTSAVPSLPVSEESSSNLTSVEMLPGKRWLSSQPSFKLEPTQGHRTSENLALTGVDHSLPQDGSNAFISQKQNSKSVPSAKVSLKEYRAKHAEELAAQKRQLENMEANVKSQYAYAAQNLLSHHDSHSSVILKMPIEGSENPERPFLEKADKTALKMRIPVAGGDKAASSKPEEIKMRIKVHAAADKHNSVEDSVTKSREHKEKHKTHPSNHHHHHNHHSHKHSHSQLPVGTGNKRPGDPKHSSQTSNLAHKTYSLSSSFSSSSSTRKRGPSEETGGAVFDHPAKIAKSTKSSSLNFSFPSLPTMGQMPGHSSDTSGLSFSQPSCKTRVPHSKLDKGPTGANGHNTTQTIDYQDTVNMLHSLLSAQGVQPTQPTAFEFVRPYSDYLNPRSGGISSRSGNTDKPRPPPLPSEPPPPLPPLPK
The experiment in a line: Lanthascreen kinase binding assay, CDK9. The settings on record: for Lanthascreen TR-FRET signal (raw ratio), sheet CDK9: first titration set (r1), duplicates. The method, then: as §1

The next test concerns the target T3, CDK12–cyclin K and DDB1 (Homo sapiens, UniProt Q16531+Q9NYV4, K965R).
T3 construct: His6–CDK12 (a.a. 713–1,052); full-length or beta-propeller B domain deletion (ΔBPB: a.a. 396–705 deleted) constructs of His6–DDB1ΔBPB, StrepII–Avi–DDB1, or His6–Spy–DDB1; made in house; host or cells: Trichoplusia ni High Five insect cells (baculovirus)
The experiment in a line: TR-FRET ternary complex formation assay (compound titration). It is filed as binding. The source says:
A 70 μs delay was employed to reduce background fluorescence. The TR-FRET signal was obtained through calculating the ratio of 520 nm to 490 nm fluorescence, and Prism 9 (GraphPad) was used for further data analysis.

In another test the test system is HEK293T cells. The experiment in a line: Drug sensitivity assay (CellTiter-Glo viability) with or without MLN4924 pretreatment. The settings on record: Supplementary Table 2; for EC50: Homo sapiens, HEK-293T, HEK293T viability, 72 h, compound alone, read-out: Cellular assays EC50; for Toxicity rescue: MLN4924-mediated cytotoxicity rescue, 10 µM used where n.d. In kind it is cell-based, human. As to the method: HEK293T–Cas9 cells were resuspended at 0.15 × 10^6 ml^−1 treated with DMSO or 100 nM MLN4924 and plated on 384-well plates. After 2 h, the indicated drugs were dispensed with a D300 digital dispenser (Tecan). After 3 days of drug exposure, cell viability was assessed using the CellTiter-Glo luminescent assay (Promega, G7572) on an CLARIOstar Plus, MARS 3.4 (BMG LabTech). Cell viabilities were calculated relative to DMSO controls.

The target of the next test is CDK12–cyclin K (Homo sapiens, UniProt Q9NYV4). The experiment in a line: Lanthascreen kinase binding assay, CDK12. The settings on record: for Lanthascreen raw signal, sheet CDK12: series r1, duplicates. As to the method: as §1
Chain of CDK12–cyclin K (Q9NYV4 713-1052): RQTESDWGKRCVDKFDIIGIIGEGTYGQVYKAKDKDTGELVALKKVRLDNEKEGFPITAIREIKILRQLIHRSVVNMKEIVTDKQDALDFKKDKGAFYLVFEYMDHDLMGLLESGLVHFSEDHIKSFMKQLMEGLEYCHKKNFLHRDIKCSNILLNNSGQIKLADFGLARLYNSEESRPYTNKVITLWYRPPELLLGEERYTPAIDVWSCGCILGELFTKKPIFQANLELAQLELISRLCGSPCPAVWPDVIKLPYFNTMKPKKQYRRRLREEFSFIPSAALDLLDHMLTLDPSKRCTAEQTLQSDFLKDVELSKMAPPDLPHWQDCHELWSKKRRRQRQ
Chain of CDK12–cyclin K (O75909 1-267 partner limits assumed): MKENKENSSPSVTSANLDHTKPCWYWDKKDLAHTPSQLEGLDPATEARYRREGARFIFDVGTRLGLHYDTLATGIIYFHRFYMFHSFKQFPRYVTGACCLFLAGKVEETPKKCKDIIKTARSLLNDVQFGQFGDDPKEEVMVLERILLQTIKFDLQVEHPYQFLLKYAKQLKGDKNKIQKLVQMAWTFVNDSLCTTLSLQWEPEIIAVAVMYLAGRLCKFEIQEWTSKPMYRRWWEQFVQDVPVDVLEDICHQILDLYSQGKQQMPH
Test [1] relates to cyclin K–eGFP degradation reporter. Description: Cyclin K reporter stability analysis (dual-color cyclin K–eGFP reporter). In kind it is cell-based, human. The following applies: Supplementary Table 2; HEK293T cycK-eGFP reporter, 5 h; read-out: Cellular assays DC50. As to the method:
HEK293T–Cas9 cells expressing the cyclin K–eGFP degradation reporter were resuspended at 1 × 10^6 ml^−1 and 50 µl of cell suspension was seeded in non-cell-culture-treated 384-well plates. Shortly after, cells were treated with drug or DMSO for 5 h. […] The fluorescent signal was quantified by flow cytometry (LSRFortessa flow cytometer, BD Biosciences). Using FlowJo (flow cytometry analysis software, BD Biosciences), the geometric mean of the eGFP and mCherry fluorescent signal for round and mCherry-positive cells was calculated. The ratio of eGFP to mCherry was normalized to the average of three DMSO-treated controls.

T3 sequence (Q9NYV4 713-1052 K965R): as the sequence (Q9NYV4 713-1052) above, with K253R counted along it
T3 sequence (O75909 1-267 partner): as the sequence (O75909 1-267 partner limits assumed) above
T3 sequence (Q16531 whole entry): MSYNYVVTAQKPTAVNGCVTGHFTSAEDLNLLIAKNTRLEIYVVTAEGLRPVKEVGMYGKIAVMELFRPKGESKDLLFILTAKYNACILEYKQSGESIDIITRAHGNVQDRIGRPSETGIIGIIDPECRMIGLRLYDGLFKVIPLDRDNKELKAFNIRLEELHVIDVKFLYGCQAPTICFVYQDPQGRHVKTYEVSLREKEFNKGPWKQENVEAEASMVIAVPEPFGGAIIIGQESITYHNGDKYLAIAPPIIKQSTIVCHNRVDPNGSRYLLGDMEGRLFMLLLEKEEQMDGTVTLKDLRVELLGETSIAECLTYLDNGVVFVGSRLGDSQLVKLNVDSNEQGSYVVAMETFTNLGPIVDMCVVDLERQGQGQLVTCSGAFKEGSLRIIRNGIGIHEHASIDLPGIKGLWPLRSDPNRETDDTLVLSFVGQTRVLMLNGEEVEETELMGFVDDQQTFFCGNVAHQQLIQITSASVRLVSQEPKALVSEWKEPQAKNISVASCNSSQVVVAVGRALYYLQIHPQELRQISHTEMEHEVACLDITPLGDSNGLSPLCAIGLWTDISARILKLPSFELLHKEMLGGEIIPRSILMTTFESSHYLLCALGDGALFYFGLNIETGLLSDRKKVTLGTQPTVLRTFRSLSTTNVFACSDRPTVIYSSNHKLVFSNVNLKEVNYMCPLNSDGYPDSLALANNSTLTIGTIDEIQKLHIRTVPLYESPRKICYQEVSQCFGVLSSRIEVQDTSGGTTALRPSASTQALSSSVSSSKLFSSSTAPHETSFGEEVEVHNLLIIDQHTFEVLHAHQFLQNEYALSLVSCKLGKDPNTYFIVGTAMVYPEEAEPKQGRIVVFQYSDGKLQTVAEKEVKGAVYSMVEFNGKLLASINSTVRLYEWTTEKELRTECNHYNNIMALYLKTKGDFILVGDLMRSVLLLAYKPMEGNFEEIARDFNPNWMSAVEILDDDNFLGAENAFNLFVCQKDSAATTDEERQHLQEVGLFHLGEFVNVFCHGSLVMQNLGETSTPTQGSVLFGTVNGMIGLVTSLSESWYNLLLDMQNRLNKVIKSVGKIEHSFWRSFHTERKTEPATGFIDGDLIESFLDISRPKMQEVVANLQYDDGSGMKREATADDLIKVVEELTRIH

With `CC(C)n1cnc2c(NCc3ccc(-c4ccccn4)cc3)nc(N3CCCC[C@H]3CCO)nc21` [DS70], the “Lanthascreen signal, sheet CDK2” value on CDK2–cyclin A (Compound 1.02544 nM) was 0.009698 and 0.009238; at CDK2–cyclin A (Compound 3.15521 nM), 0.009437 and 0.009539; at CDK2–cyclin A (Compound 9.46563 nM), 0.008356 and 0.007045; on CDK2–cyclin A (Compound 31.5521 nM), 0.006783 and 0.006389; at CDK2–cyclin A (Compound 99.3891 nM) it was 0.003942 and 0.005883; at CDK2–cyclin A (Compound 315.521 nM) it was 0.002917 and 0.004435. Moreover, the “Lanthascreen signal, sheet CDK2” value on CDK2–cyclin A (Compound 3155.21 nM) was 0.002797 and 0.003541; on CDK2–cyclin A (Compound 10002 nM), 0.002382 and 0.002785. Moreover, the IC50 is 31 nM on CDK2–cyclin A (Supplementary Table 2, read-out: Lanthascreen IC50 [nM] CDK2); 5 nM at CDK9–cyclin T (Supplementary Table 2, read-out: Lanthascreen IC50 [nM] CDK9); 1 nM at CDK12–cyclin K (Supplementary Table 2, read-out: Lanthascreen IC50 [nM] CDK12). Also, the “Lanthascreen TR-FRET signal (raw ratio), sheet CDK9” value at CDK9–cyclin T (compound 1.02544 nM) was 0.01641 and 0.01302; on CDK9–cyclin T (compound 3.15521 nM), 0.01102 and 0.01312; on CDK9–cyclin T (compound 9.46563 nM) it was 0.008363 and 0.009049; on CDK9–cyclin T (compound 31.5521 nM) it was 0.005358 and 0.007058; on CDK9–cyclin T (compound 99.3891 nM) it was 0.003738 and 0.004042; on CDK9–cyclin T (compound 315.521 nM), 0.003575 and 0.004296. Besides, on CDK9–cyclin T (compound 10002 nM), the “Lanthascreen TR-FRET signal (raw ratio), sheet CDK9” value was 0.002963 and 0.00293. In addition, the EC50 at CDK12–cyclin K and DDB1 (Supplementary Table 2, read-out: TR-FRET EC50 TR-FRET) is 0.0176 µM; at CDK12–cyclin K and DDB1 (in vitro complex formation, 50 nM CDK12–cyclin K, 100 nM DDB1, text and figures, read-out: TR-FRET EC50) it was 0.018 ± 0.001 µM; with HEK293T cells, 0.265 µM. For the same compound, the “TR-FRET signal at compound concentration 0.468 nM” value on CDK12–cyclin K and DDB1 (raw replicate titration data) is 0.3438 and 0.3184 and 0.1924 and 0.2024; at CDK12–cyclin K and DDB1 (raw titration data) it was 0.3438 and 0.3184 and 0.1924 and 0.2024. The “TR-FRET signal at compound concentration 2.16 nM” value on CDK12–cyclin K and DDB1 (raw replicate titration data) was 0.4192 and 0.3926 and 0.2807 and 0.3027; at CDK12–cyclin K and DDB1 (raw titration data) it was 0.4192 and 0.3926 and 0.2807 and 0.3027. Besides, the “TR-FRET signal at compound concentration 3.6 nM” value was 0.579 and 0.5213 and 0.4737 and 0.5178 at CDK12–cyclin K and DDB1 (raw replicate titration data); 0.579 and 0.5213 and 0.4737 and 0.5178 on CDK12–cyclin K and DDB1 (raw titration data). For the same compound, the “TR-FRET signal at compound concentration 7.92001 nM” value is 0.9688 and 0.8489 and 0.8819 and 0.9925 on CDK12–cyclin K and DDB1 (raw replicate titration data); 0.9688 and 0.8489 and 0.8819 and 0.9925 on CDK12–cyclin K and DDB1 (raw titration data). The “TR-FRET signal at compound concentration 15.84 nM” value at CDK12–cyclin K and DDB1 (raw replicate titration data) is 1.662 and 1.49 and 2.462 and 1.9374; at CDK12–cyclin K and DDB1 (raw titration data), 1.662 and 1.49 and 2.462 and 1.9374. The “TR-FRET signal at compound concentration 30.96 nM” value at CDK12–cyclin K and DDB1 (raw replicate titration data) is 3.334 and 2.673 and 3.406 and 3.32; at CDK12–cyclin K and DDB1 (raw titration data), 3.334 and 2.673 and 3.406 and 3.32. Besides, the “TR-FRET signal at compound concentration 62.6401 nM” value at CDK12–cyclin K and DDB1 (raw replicate titration data) was 4.043 and 3.673 and 3.819 and 3.799; at CDK12–cyclin K and DDB1 (raw titration data), 4.043 and 3.673 and 3.819 and 3.799. Besides, the “TR-FRET signal at compound concentration 125.28 nM” value on CDK12–cyclin K and DDB1 (raw replicate titration data) was 4.112 and 3.943 and 3.866 and 3.944; on CDK12–cyclin K and DDB1 (raw titration data), 4.112 and 3.943 and 3.866 and 3.944. Also, the “TR-FRET signal at compound concentration 244.8 nM” value at CDK12–cyclin K and DDB1 (raw replicate titration data) is 4.2103 and 4.005 and 3.909 and 3.827; at CDK12–cyclin K and DDB1 (raw titration data) it was 4.2103 and 4.005 and 3.909 and 3.827. In addition, the “TR-FRET signal at compound concentration 993.601 nM” value is 4.121 and 4.04 and 3.857 and 3.873 at CDK12–cyclin K and DDB1 (raw replicate titration data); 4.121 and 4.04 and 3.857 and 3.873 on CDK12–cyclin K and DDB1 (raw titration data). In addition, the “TR-FRET signal at compound concentration 2001.6 nM” value is 4.101 and 3.97 and 3.793 and 3.647 on CDK12–cyclin K and DDB1 (raw replicate titration data); 4.101 and 3.97 and 3.793 and 3.647 at CDK12–cyclin K and DDB1 (raw titration data). Moreover, the Toxicity rescue in the test on HEK293T cells stood at 30%. The “CDK inhibitory selectivity, result in words” value at CDK12–cyclin K (Lanthascreen across CDK2/9/12) is “more pronounced pan-CDK engagement than CR8”. Moreover, the “Lanthascreen raw signal, sheet CDK12” value was 0.01164 and 0.009885 on CDK12–cyclin K (compound 1.02544 nM); 0.008674 and 0.009398 on CDK12–cyclin K (compound 3.15521 nM); 0.007398 and 0.008542 on CDK12–cyclin K (compound 9.46563 nM); 0.006709 and 0.008514 at CDK12–cyclin K (compound 31.5521 nM); 0.005942 and 0.005764 at CDK12–cyclin K (compound 99.3891 nM); 0.005543 and 0.005183 on CDK12–cyclin K (compound 315.521 nM). In addition, the “Lanthascreen raw signal, sheet CDK12” value is 0.004896 and 0.004614 at CDK12–cyclin K (compound 3155.21 nM); 0.00468 and 0.003424 at CDK12–cyclin K (compound 10002 nM).

As to `CCc1ccc2nc(Nc3cc(Cc4ccccc4)nc(N[C@H]4CC[C@H](O)CC4)n3)sc2c1` [GSK2250665A, reference compound], at CDK12–cyclin K and DDB1 (compound concentration 4.68 nM, raw replicate titration data), the “TR-FRET signal at compound concentration 4.68 nM” value was 0.2092 and 0.2185. For the same compound, the “TR-FRET signal at compound concentration 21.6 nM” value on CDK12–cyclin K and DDB1 (compound concentration 21.6 nM, raw replicate titration data) is 0.2003 and 0.2155. Moreover, the “TR-FRET signal at compound concentration 36 nM” value at CDK12–cyclin K and DDB1 (compound concentration 36 nM, raw replicate titration data) is 0.2049 and 0.2158. Moreover, the “TR-FRET signal at compound concentration 79.2001 nM” value at CDK12–cyclin K and DDB1 (compound concentration 79.2001 nM, raw replicate titration data) was 0.208 and 0.2231. On CDK12–cyclin K and DDB1 (compound concentration 158.4 nM, raw replicate titration data), the “TR-FRET signal at compound concentration 158.4 nM” value was 0.2009 and 0.2135. In addition, on CDK12–cyclin K and DDB1 (compound concentration 309.6 nM, raw replicate titration data), the “TR-FRET signal at compound concentration 309.6 nM” value is 0.2037 and 0.2058. In addition, on CDK12–cyclin K and DDB1 (compound concentration 626.401 nM, raw replicate titration data), the “TR-FRET signal at compound concentration 626.401 nM” value was 0.2061 and 0.2177. Besides, the “TR-FRET signal at compound concentration 1252.8 nM” value at CDK12–cyclin K and DDB1 (compound concentration 1252.8 nM, raw replicate titration data) is 0.2168 and 0.2226. Moreover, the “TR-FRET signal at compound concentration 2448 nM” value on CDK12–cyclin K and DDB1 (compound concentration 2448 nM, raw replicate titration data) was 0.212 and 0.232. Moreover, the “TR-FRET signal at compound concentration 9936.01 nM” value at CDK12–cyclin K and DDB1 (compound concentration 9936.01 nM, raw replicate titration data) is 0.2386 and 0.258. For the same compound, the “TR-FRET signal at compound concentration 20016 nM” value on CDK12–cyclin K and DDB1 (compound concentration 20016 nM, raw replicate titration data) is 0.2819 and 0.2859. In addition, in test [1], the DC50 was above 10 µM.

For the compound `CC(C)(C)c1cnc(CSc2cnc(NC(=O)C3CCN(CC(=O)NCCOCCOCCOCCNc4cccc5c4C(=O)N(C4CCC(=O)NC4=O)C5=O)CC3)s2)o1` (centres unmarked) [THAL-SNS032], in the test with HEK293T cells, the EC50 was found to be 0.192 µM and the Toxicity rescue is given as 267%. Besides, in test [1], the DC50 was below 0.05 µM.
